# Data as given in PubChem BioAssay AID1918956 (Molecular Pharmacology Branch, DTP, NCI, 2023).
# System: OVCAR-5 complex spheroids, viability
# Assay: Anticancer human tumor OVCAR-5 cell line growth inhibition;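 also: spheroids exposed to agents for seven days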;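 as to viability, T/C: 100% = DMSO vehicle control wells viability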
# Details: for IC50: curve of first compound; for viability, T/C: stronger effect = lower value
# Method in brief: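 Complex spheroids of tumor cells with HUVEC and human MSCs, exposed to iadademstat combined with other agents. Each agent tested in half-log steps from near clinical Cmax (else 10 microM top), DMSO ≤0.25%.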
# [1] = second compound 0.1 µM, first compound 0.000949 µM
# [2] = second compound 0.1 µM, first compound 0.003 µM
# [3] = second compound 0.1 µM, first compound 0.00949 µM
# [4] = second compound 0.1 µM, first compound 0.03 µM
# [5] = second compound 0.1 µM, first compound 0.0949 µM
# [6] = second compound 0.1 µM, first compound 0.3 µM
# [7] = second compound 0.316 µM, first compound 0.000949 µM
# [8] = second compound 0.316 µM, first compound 0.003 µM
# [9] = second compound 0.316 µM, first compound 0.00949 µM
# [10] = second compound 0.316 µM, first compound 0.03 µM
# [11] = second compound 0.316 µM, first compound 0.0949 µM
# [12] = second compound 0.316 µM, first compound 0.3 µM
# [13] = second compound 1 µM, first compound 0.000949 µM
# [14] = second compound 1 µM, first compound 0.003 µM
# [15] = second compound 1 µM, first compound 0.00949 µM
# [16] = second compound 1 µM, first compound 0.03 µM
# [17] = second compound 1 µM, first compound 0.0949 µM
# [18] = second compound 1 µM, first compound 0.3 µM
# [19] = second compound 3.16 µM, first compound 0.000949 µM
# [20] = second compound 3.16 µM, first compound 0.003 µM
# [21] = second compound 3.16 µM, first compound 0.00949 µM
# [22] = second compound 3.16 µM, first compound 0.03 µM
# [23] = second compound 3.16 µM, first compound 0.0949 µM
# [24] = second compound 3.16 µM, first compound 0.3 µM
# [25] = second compound 10 µM, first compound 0.000949 µM
# [26] = second compound 10 µM, first compound 0.003 µM
# [27] = second compound 10 µM, first compound 0.00949 µM
# [28] = second compound 10 µM, first compound 0.03 µM
# [29] = second compound 10 µM, first compound 0.0949 µM
# [30] = second compound 10 µM, first compound 0.3 µM
smiles,measurement,setting,value
CCc1c2c(nc3ccc(O)cc13)-c1cc3c(c(=O)n1C2)COC(=O)[C@]3(O)CC + NC1CC1c1ccc(-c2cccc(O)c2)cc1,IC50,second compound 0.1 µM,< 0.000949 µM
same,IC50,second compound 0.316 µM,< 0.000949 µM
same,IC50,second compound 1 µM,< 0.000949 µM
same,IC50,second compound 3.16 µM,< 0.000949 µM
same,IC50,second compound 10 µM,< 0.000949 µM
same,"viability, T/C",[1],33%
same,"viability, T/C",[2],17.4%
same,"viability, T/C",[3],7.17%
same,"viability, T/C",[4],2.96%
same,"viability, T/C",[5],0.9%
same,"viability, T/C",[6],0.46%
same,"viability, T/C",[7],31.7%
same,"viability, T/C",[8],18.4%
same,"viability, T/C",[9],7.68%
same,"viability, T/C",[10],2.91%
same,"viability, T/C",[11],0.78%
same,"viability, T/C",[12],0.44%
same,"viability, T/C",[13],31.3%
same,"viability, T/C",[14],18%
same,"viability, T/C",[15],7.01%
same,"viability, T/C",[16],3.01%
same,"viability, T/C",[17],0.61%
same,"viability, T/C",[18],0.46%
same,"viability, T/C",[19],32.2%
same,"viability, T/C",[20],18.7%
same,"viability, T/C",[21],8.72%
same,"viability, T/C",[22],4.14%
same,"viability, T/C",[23],0.87%
same,"viability, T/C",[24],0.58%
same,"viability, T/C",[25],34%
same,"viability, T/C",[26],19.9%
same,"viability, T/C",[27],8.18%
same,"viability, T/C",[28],4.37%
same,"viability, T/C",[29],0.68%
same,"viability, T/C",[30],0.41%
Nc1ccccc1NC(=O)c1ccc(CNC(=O)OCc2cccnc2)cc1 + NC1CC1c1ccc(-c2cccc(O)c2)cc1,IC50,second compound 0.1 µM,0.123 µM
same,IC50,second compound 0.316 µM,0.174 µM
same,IC50,second compound 1 µM,0.145 µM
same,IC50,second compound 3.16 µM,0.111 µM
same,IC50,second compound 10 µM,0.123 µM
same,"viability, T/C",[3],83.1%
same,"viability, T/C",[4],71.6%
same,"viability, T/C",[5],54.5%
same,"viability, T/C",[6],34.8%
same,"viability, T/C","second compound 0.1 µM, first compound 0.949 µM",19.2%
same,"viability, T/C","second compound 0.1 µM, first compound 3 µM",8.11%
same,"viability, T/C",[9],84.9%
same,"viability, T/C",[10],79.7%
same,"viability, T/C",[11],65.3%
same,"viability, T/C",[12],35.5%
same,"viability, T/C","second compound 0.316 µM, first compound 0.949 µM",19.4%
same,"viability, T/C","second compound 0.316 µM, first compound 3 µM",8.17%
same,"viability, T/C",[15],75.6%
same,"viability, T/C",[16],65.9%
same,"viability, T/C",[17],62.2%
same,"viability, T/C",[18],32.4%
same,"viability, T/C","second compound 1 µM, first compound 0.949 µM",19.8%
same,"viability, T/C","second compound 1 µM, first compound 3 µM",8.19%
same,"viability, T/C",[21],84%
same,"viability, T/C",[22],68.6%
same,"viability, T/C",[23],55.5%
same,"viability, T/C",[24],30.6%
same,"viability, T/C","second compound 3.16 µM, first compound 0.949 µM",17.8%
same,"viability, T/C","second compound 3.16 µM, first compound 3 µM",7.56%
same,"viability, T/C",[27],79.6%
same,"viability, T/C",[28],71.3%
same,"viability, T/C",[29],55.5%
same,"viability, T/C",[30],32.1%
same,"viability, T/C","second compound 10 µM, first compound 0.949 µM",19.5%
same,"viability, T/C","second compound 10 µM, first compound 3 µM",9.48%
Nc1ccn(C2OC(CO)C(O)C2(F)F)c(=O)n1 (stereo not given) + NC1CC1c1ccc(-c2cccc(O)c2)cc1,IC50,second compound 0.1 µM,< 0.000949 µM
same,IC50,second compound 0.316 µM,< 0.000949 µM
same,IC50,second compound 1 µM,< 0.000949 µM
same,IC50,second compound 3.16 µM,< 0.000949 µM
same,IC50,second compound 10 µM,< 0.000949 µM
same,"viability, T/C",[1],25.5%
same,"viability, T/C",[2],27.5%
same,"viability, T/C",[3],26.3%
same,"viability, T/C",[4],27.9%
same,"viability, T/C",[5],24.9%
same,"viability, T/C",[6],26.1%
same,"viability, T/C",[7],26.9%
same,"viability, T/C",[8],26.6%
same,"viability, T/C",[9],28%
same,"viability, T/C",[10],27.6%
same,"viability, T/C",[11],27.1%
same,"viability, T/C",[12],28.5%
same,"viability, T/C",[13],27.1%
same,"viability, T/C",[14],25%
same,"viability, T/C",[15],24.1%
same,"viability, T/C",[16],27.9%
same,"viability, T/C",[17],24.8%
same,"viability, T/C",[18],25.4%
same,"viability, T/C",[19],27.5%
same,"viability, T/C",[20],28.6%
same,"viability, T/C",[21],27.1%
same,"viability, T/C",[22],27.9%
same,"viability, T/C",[23],29.5%
same,"viability, T/C",[24],25.9%
same,"viability, T/C",[25],29%
same,"viability, T/C",[26],29.1%
same,"viability, T/C",[27],28.6%
same,"viability, T/C",[28],26.9%
same,"viability, T/C",[29],28.9%
same,"viability, T/C",[30],28.4%
O=C(c1cc(Cc2n[nH]c(=O)c3ccccc23)ccc1F)N1CCN(C(=O)C2CC2)CC1 + NC1CC1c1ccc(-c2cccc(O)c2)cc1,IC50,second compound 0.1 µM,> 10 µM
same,IC50,second compound 0.316 µM,> 10 µM
same,IC50,second compound 1 µM,> 10 µM
same,IC50,second compound 3.16 µM,> 10 µM
same,IC50,second compound 10 µM,> 10 µM
same,"viability, T/C","second compound 0.1 µM, first compound 0.0316 µM",97.6%
same,"viability, T/C","second compound 0.1 µM, first compound 0.1 µM",112%
same,"viability, T/C","second compound 0.1 µM, first compound 0.316 µM",102%
same,"viability, T/C","second compound 0.1 µM, first compound 1 µM",88%
same,"viability, T/C","second compound 0.1 µM, first compound 3.16 µM",76.9%
same,"viability, T/C","second compound 0.1 µM, first compound 10 µM",74.9%
same,"viability, T/C","second compound 0.316 µM, first compound 0.0316 µM",114%
same,"viability, T/C","second compound 0.316 µM, first compound 0.1 µM",104%
same,"viability, T/C","second compound 0.316 µM, first compound 0.316 µM",99.4%
same,"viability, T/C","second compound 0.316 µM, first compound 1 µM",93.7%
same,"viability, T/C","second compound 0.316 µM, first compound 3.16 µM",85.3%
same,"viability, T/C","second compound 0.316 µM, first compound 10 µM",73.8%
same,"viability, T/C","second compound 1 µM, first compound 0.0316 µM",94.9%
same,"viability, T/C","second compound 1 µM, first compound 0.1 µM",105%
same,"viability, T/C","second compound 1 µM, first compound 0.316 µM",93.7%
same,"viability, T/C","second compound 1 µM, first compound 1 µM",81.2%
same,"viability, T/C","second compound 1 µM, first compound 3.16 µM",81.5%
same,"viability, T/C","second compound 1 µM, first compound 10 µM",72.3%
same,"viability, T/C","second compound 3.16 µM, first compound 0.0316 µM",97.9%
same,"viability, T/C","second compound 3.16 µM, first compound 0.1 µM",86.9%
same,"viability, T/C","second compound 3.16 µM, first compound 0.316 µM",96.9%
same,"viability, T/C","second compound 3.16 µM, first compound 1 µM",83%
same,"viability, T/C","second compound 3.16 µM, first compound 3.16 µM",71%
same,"viability, T/C","second compound 3.16 µM, first compound 10 µM",65.5%
same,"viability, T/C","second compound 10 µM, first compound 0.0316 µM",95.8%
same,"viability, T/C","second compound 10 µM, first compound 0.1 µM",87%
same,"viability, T/C","second compound 10 µM, first compound 0.316 µM",70.5%
same,"viability, T/C","second compound 10 µM, first compound 1 µM",81.9%
same,"viability, T/C","second compound 10 µM, first compound 3.16 µM",73.2%
same,"viability, T/C","second compound 10 µM, first compound 10 µM",60.2%
